The values that follow come from patent US12157730B2, “Heteroaryl derivative, method for producing same, and pharmaceutical composition comprising same as effective component” (VORONOI INC., priority 2019, dated 2024).

For this test, the target named is T1, Ba/F3 cell EGFR Exon20 ins NPH (Homo sapiens, UniProt P00533, INS773NPH).
T1 construct: expressed in transfected cells; host or cells: Ba/F3
Description: Ba/F3 cell proliferation suppression, EGFR Exon20 ins NPH. To be noted: GI50 class; Ba/F3 cell line with NPH inserted at Exon20 of EGFR; 72 hours. Format: cell-based. Summed up:
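Cells (3000–5000/well) plated 24 h before compound, 12-point 3-fold dilutions at 0.3 nM to 50 um final; Ba/F3 lines grown with 5 ng/ml IL-3. Viability by CellTiter-Glo luminescence after 72 h, growth ratio vs control, GI50 from curves; triplicate.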
Take `C=CC(=O)Nc1cc(Nc2cc(N3OCC[C@@H]3c3cccc(Cl)c3F)ncn2)c(OC)cc1N1CCC(N2CCN(C3CC3)[C@H](C)C2)CC1` [Example 180, N-(5-((6-((R)-3-(3-chloro-2-fluorophenyl)isoxazolidine-2-yl)pyrimidine-4-yl)amino)-2-(4-((R)-4-cyclopropyl-3-methylpiperazine-1-yl)piperidine-1-yl)-4-methoxyphenyl) acrylamide]: the “Ba/F3 (NPH) Activity” value was “A (GI50 < 50 nM)”.
As to `C=CC(=O)Nc1cc(Nc2cc(N3OCC[C@@H]3c3ccc(Cl)c(Cl)c3)ncn2)c(OC)cc1N1CC[C@@H](N(C)C)C1` [compound 682, N-(5-((6-((R)-3-(3,4-dichlorophenyl)isoxazolidine-2-yl)pyrimidine-4-yl)amino)-2-((R)-3-(dimethylamino)pyrolidine-1-yl)-4-methoxyphenyl) acrylamide], the “Ba/F3 (NPH) Activity” value was “A (GI50 < 50 nM)”.
With `C=CC(=O)Nc1cc(Nc2cc(N3OCC[C@@H]3c3ccc(Cl)c(Cl)c3)ncn2)c(OC)cc1N(C)CCN(C)C` [compound 669, N-(5-((6-((R)-3-(3,4-dichlorophenyl)isoxazolidine-2-yl)pyrimidine-4-yl)amino)-2-((2-(dimethylamino)ethyl)(methyl)amino)-4-methoxyphenyl) acrylamide], the “Ba/F3 (NPH) Activity” value was “A (GI50 < 50 nM)”.
Then `C=CC(=O)Nc1cc(Nc2cc(N3OCC[C@H]3Cc3ccccc3)ncn2)c(OC)cc1N1CCOCC1` [compound 966, N-(5-((6-((R)-3-benzylisoxazolidine-2-yl)pyrimidine-4-yl)amino)-4-methoxy-2-morpholinophenyl) acrylamide], with “C (500 nM ≤ GI50 < 5000 nM)”; and `C=CC(=O)Nc1cc(Nc2cc(N3OCC[C@@H]3c3cc(F)cc(F)c3)ncn2)c(OC)cc1N1CCC(N2CCC(F)(F)CC2)CC1` [compound 718, N-(2-(4,4-difluoro-[1,4'-bipiperidine]-1'-yl)-5-((6-((R)-3-(3,5-difluorophenyl)isoxazolidine-2-yl)pyrimidine-4-yl)amino)-4-methoxyphenyl) acrylamide], with “A (GI50 < 50 nM)”.
Consider `C=CC(=O)Nc1cc(Nc2cc(N3OCC[C@@H]3c3ccc(F)c(Cl)c3F)ncn2)c(OC)cc1N1CCC(N2CCN(CC)CC2)CC1` [compound 639, N-(5-((6-((R)-3-(3-chloro-2,4-difluorophenyl)isoxazolidine-2-yl)pyrimidine-4-yl)amino)-2-(4-(4-ethylpiperazine-1-yl)piperidine-1-yl)-4-methoxyphenyl) acrylamide], for which the “Ba/F3 (NPH) Activity” value is reported as “A (GI50 < 50 nM)”.
